Source: patent US6943191B1, “Disubstituted lavendustin A analogs and pharmaceutical composition comprising the analogs” (The United States of America as represented by the …, priority 1998, dated 2005)
Where two headings read alike, the source gives them in different places.

What was measured:
K562 cells = experiment: K562 cell culture and growth assay, 6 day MTT; type: cell-based, human; settings: Homo sapiens, 144 h, K562, 6 days, 4 or more experiments
Protocol: This example describes the procedure used for cell culture and growth assays. Human leukemia, Philadelphia-chromosome-positive CML cell line K562 was obtained from ATCC (Rockville, Md.). Cells were cultured in RPMI medium containing 10% fetal calf serum, 2 mM glutamine, 100 units/ml of penicillin and 100 μg/ml streptomycin Cells (2×10^3 cells/well) were incubated with increasing concentrations of compounds of the present invention dissolved in DMSO in a final volume of 200 μl in 96-well plates. Control cells were incubated with medium containing identical concentrations of the DMSO solvent. Growth of K562 cells was quantitated after 6 days by ability of living cells to reduce the yellow dye 3-(4,5-dimethylthiazolyl)-2,5-diphenyltetrazolium bromide (MTT) to a blue formazan product. Further information concerning this procedure is provided by Mossman T., “Rapid Colorimetric Assay for Cellular Growth and Survival—Application to Proliferation and Cytotoxicity Assays,” J. Immunol. Methods 1983, 65:55-63, which is incorporated herein by reference.

p210^bcr-abl = target: T1, p210^bcr-abl (Homo sapiens, UniProt P00519); experiment: Inhibition of in vitro auto-phosphorylation of p210^bcr-abl, immune-complex kinase assay; type: biochemical; settings: immune complex kinase assay, 3 experiments, read-out: Enzyme Assays IC50 (μM) p210bcl-abl in vitro phosphorylation
T1 construct: immune complexes containing ^32P-labeled p210^bcr-abl were collected on protein Sepharose beads; BCR (N-terminal part of the breakpoint cluster region protein, natural fusion partner); endogenous in cells; host or cells: K562 cells (lysate, immunoprecipitated on Protein A-Sepharose); the other entry of the earlier key: BCR (P11274, Breakpoint cluster region protein)
T1 sequence (P00519 with tags, fused parts or gaps): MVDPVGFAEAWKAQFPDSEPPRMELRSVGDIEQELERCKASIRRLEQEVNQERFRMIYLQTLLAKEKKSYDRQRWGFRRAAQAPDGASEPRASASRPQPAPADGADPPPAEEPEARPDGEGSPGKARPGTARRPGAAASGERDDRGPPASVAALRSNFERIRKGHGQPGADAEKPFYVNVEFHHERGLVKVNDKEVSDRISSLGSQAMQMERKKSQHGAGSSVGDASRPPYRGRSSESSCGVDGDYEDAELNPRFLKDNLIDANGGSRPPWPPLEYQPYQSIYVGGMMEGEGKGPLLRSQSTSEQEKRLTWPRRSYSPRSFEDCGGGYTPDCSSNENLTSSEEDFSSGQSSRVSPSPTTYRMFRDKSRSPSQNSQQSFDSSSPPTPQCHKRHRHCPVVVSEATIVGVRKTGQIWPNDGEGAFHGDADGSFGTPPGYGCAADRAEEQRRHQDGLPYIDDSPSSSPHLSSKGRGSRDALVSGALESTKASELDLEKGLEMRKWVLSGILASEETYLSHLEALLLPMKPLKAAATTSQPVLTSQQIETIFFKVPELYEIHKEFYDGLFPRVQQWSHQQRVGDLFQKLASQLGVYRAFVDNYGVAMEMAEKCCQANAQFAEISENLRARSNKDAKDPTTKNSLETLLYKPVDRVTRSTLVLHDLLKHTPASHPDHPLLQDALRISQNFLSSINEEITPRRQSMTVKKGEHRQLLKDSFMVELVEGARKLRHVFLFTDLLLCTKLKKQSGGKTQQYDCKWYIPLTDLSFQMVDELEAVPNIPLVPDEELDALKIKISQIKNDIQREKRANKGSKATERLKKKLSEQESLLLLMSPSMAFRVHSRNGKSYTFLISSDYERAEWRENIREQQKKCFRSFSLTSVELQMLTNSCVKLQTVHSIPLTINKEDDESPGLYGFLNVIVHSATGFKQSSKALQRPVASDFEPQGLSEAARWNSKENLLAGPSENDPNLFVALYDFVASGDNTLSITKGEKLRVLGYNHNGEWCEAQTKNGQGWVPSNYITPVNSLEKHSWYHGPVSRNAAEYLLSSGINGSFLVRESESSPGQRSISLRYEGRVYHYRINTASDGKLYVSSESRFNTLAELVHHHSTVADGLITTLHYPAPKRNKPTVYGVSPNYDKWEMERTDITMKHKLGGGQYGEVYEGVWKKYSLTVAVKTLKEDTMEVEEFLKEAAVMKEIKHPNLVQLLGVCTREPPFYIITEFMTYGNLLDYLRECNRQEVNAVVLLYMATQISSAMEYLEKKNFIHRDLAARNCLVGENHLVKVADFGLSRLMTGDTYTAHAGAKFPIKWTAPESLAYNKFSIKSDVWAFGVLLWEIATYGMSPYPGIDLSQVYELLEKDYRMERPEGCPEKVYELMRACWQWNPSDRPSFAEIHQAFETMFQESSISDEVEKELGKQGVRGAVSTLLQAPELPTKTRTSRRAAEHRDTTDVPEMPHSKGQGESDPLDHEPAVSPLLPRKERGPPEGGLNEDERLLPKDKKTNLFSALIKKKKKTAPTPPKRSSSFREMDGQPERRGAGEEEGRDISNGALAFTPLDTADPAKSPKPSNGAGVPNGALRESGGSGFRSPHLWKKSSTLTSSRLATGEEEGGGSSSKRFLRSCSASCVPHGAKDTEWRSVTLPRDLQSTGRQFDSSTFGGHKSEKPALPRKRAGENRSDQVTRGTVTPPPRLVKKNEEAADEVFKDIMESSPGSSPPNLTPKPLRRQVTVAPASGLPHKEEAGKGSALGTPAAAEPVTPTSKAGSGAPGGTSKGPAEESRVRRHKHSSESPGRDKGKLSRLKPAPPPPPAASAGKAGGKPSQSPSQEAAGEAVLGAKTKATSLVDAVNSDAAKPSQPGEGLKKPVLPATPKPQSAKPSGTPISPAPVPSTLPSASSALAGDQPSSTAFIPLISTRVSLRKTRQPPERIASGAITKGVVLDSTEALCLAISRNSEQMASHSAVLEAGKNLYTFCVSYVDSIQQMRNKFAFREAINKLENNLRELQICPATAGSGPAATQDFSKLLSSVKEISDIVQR
Protocol: Inhibition of in vitro auto-phosphorylation of p210^bcr-abl in immune-complex kinase assays were conducted as follows. K562 cell line cells were washed twice in […]. The washed cells were lysed in PLC lysis buffer 150 mM HEPES (pH 7.5), 150 mM NaCl, 10% (v/v) glycerol, 1% (v/v) Triton X-100, 1.5 mM MgCl2, 1 mM EGTA. 10 μg/ml leupeptin, 10 μg/ml aprotinin, 1 mM sodium orthovanadate. 10 mM sodium pyrophosphate, 100 mM sodium fluoride and 1 mM phenylmethyl sulfonyl fluoride| Cell lysates were centrifuged at 100,000 g for 15 minutes and the supernatant collected. Protein concentrations of the clarified supernatants were determined by the Bradford Protein Assay, and the same quantity of protein was immunoprecipitated from control (vehicle-treated) and drug-treated cells. Cell lysates were incubated and gently rocked at 4° C. for 4 hours overnight with antibodies. Immune complexes were collected by incubation with Protein A-Sepharose beads (Pharmacia, Piscataway N.J.) and immune complexes (beads) were washed three times with HNTG buffer [20 mM HEPES (pH 7.5), 10% glycerol, 0.1% Triton X-100, 150 mM NaCl and 1 mM sodium orthovanadate] to remove unbound material. Bound proteins were boiled for 5 minutes in 2×SDS sample buffer (63 mM Tris-HCl, ph 6.8; 10% glycerol; 2% SDS; 0.0025% bromophenol blue: and […] 2 mercaptoethanol) prior to SDS-PAGE. Proteins were resolved on 4-20% gradient mini gels from Novex Experimental Technology (San Diego, Calif.).
After SDS-PAGE, proteins were electrophoretically transferred onto Immobilon polyvinylidene difluoride (PVDF) membranes (Millipore, Bedford, Mass.) at 250 mA for 4 hours at 4° C. using 2× Tris glycine transfer buffer (50 mM Tris, glycine), 20% methanol and 0.1% SDS. Residual binding sites on the membrane were blocked by incubation in TTS (20 mM Tris pH 7.4, 0.9% NaCl and 0.05% Tween 20) containing 3% BSA overnight at 4° C. or for 4 hours at room temperature. Blots were incubated for 1-1.5 hours with TTS containing 0.3% BSA with 1 μg/ml of mouse anti-P-Tyr, 2 μg/ml of mouse anti-Grb2 or 1 μg/ml of rabbit anti-She antibody. Blots were washed three times for 6 minutes each with TTS containing 0.3% BSA and probed with a 1:1000 dilution of rabbit anti-mouse antibody or directly with [^125I]Protein A (Amersham, Arlington Heights, Ill.) in blocking solutions. Proteins were visualized by autoradiography (exposed for 1-2 days at −70° C.).
The p210^bcr-abl, protein immunoprecipitates were washed twice with HTNG buffer Immunoprecipitates were washed once with 50 mM Tris (pH 7.0) and distributed to each reaction in 20 μl of 20 mM PIPES [piperazine-N,N′-bis(ethanesulfonic acid)] (pH 7.0)−20 mM MnCl2. Then, 10 μl of compounds made according to the present invention at desired concentrations from working stock solution prepared in 20 mM PIPEs (pH 7.0)−20 mM MnCl2 were added to each reaction tube. Reactions were initiated with the addition of 10 μl of [γ-^33P]ATP (10 μCi per sample, 3000 Ci/mmol; Amersham), incubated for 20 minutes at 30° C., stopped by addition of 10 μl of 5×SDS sample buffer, heated at 100° C. for 5 minutes, and analyzed on 4-20% SDS-PAGE and by autoradiography.
To assess the effect of drugs added in vitro on the state of p210^bcr-abl in the immune complexes, K562 cells were labeled with ^32P, lysed in PLC buffer and immune complexes containing ^32P-labeled p210^bcr-abl were collected on protein Sepharose beads and beads were washed four times with HNTG buffer. Immune complexes were divided into several tubes in 30 μl of PLC buffer in the presence of compounds made as described herein.

[1] = tested on: panel of approximately 60 different human tumor cell lines; experiment: National Cancer Institute drug screen, mean-graph parameters; type: cell-based; settings: mean over cell line panel, two days exposure; for GI50: Homo sapiens, 48 h, read-out: Tumor cell Mean log GI50 (converted)
Protocol: Compounds of the present invention also have been subjected to the drug screening procedure employed by the National Cancer Institute for the screening of drugs having possible anticancer utility. The screening procedure uses a diverse, disease-oriented panel consisting of approximately 60 different human tumor cell lines organized into disease-specific subpanels. The compounds of the present invention were tested over a range of concentrations for cytotoxic or growth-inhibitory effects against cell lines comprising the panel. The eight subpanels represented diverse histologies (leukemias, melanomas, and tumors of the lung, colon, kidney, breast, ovary, and brain).
Compounds of the present invention were tested over a period of two days. During this period the cells were continuously exposed to various concentrations of the compounds tested. The tests produced individual dose-responses, one for each cell line (i.e. one for each example), and the data were represented in dose-response curves. The data provided by these dose response curves were summarized using a mean-graph format.
To produce data for the mean-graph format, a compound concentration that produced a target level response was calculated for each cell line. Three different response parameters were evaluated. The first response parameter was the growth inhibition (“GI50”). GI50 is the concentration of compounds made according to the present invention that produced an apparent 50% decrease in the number of tumor cells relative to the appropriate control (not exposed to the compounds of the present invention) at the end of the incubation period.
The second response parameter was the total growth inhibition (“TGI”). TGI is the concentration at which the number of tumor cells remaining at the end of the incubation period substantially equal the number of tumor cells existing at the start of the incubation period.
The third response parameter was the lethal concentration (“LC50”) LC50 is the concentration of compounds made according to the present invention that caused an apparent 50 percent reduction in the number of tumor cells […] at the start of the incubation period.
In a typical GI50 mean graph, the relative position of the vertical reference line along the horizontal concentration axis was obtained by averaging the negative log10GI50 values for all the cell lines tested against the compound. Horizontal bars were then plotted for the individual negative log10GI50 values of each cell line relative to the vertical reference line. The GI50 graph thus provided a characteristic fingerprint for the compound, displaying the individual cell lines that are proportionately more sensitive than average (bars extending to the right of the reference line) or proportionately less sensitive than average (bars extending to the left of the reference line). The length of a bar was proportional to the difference between the log10GI50 value obtained with the particular cell line and the mean (represented by the vertical reference line).
Similar mean graphs were prepared for the TGI and LC50 response parameters.

[2] = Table 8, mean+S.E., read-out: IC50 (μM) 6 dMTT
[3] = Table 9, mean ± S.E., read-out: IC50 (μM) 6dMTT

Structure (SMILES) | IC50 (K562 cells; [2]) [µM] | IC50 (p210^bcr-abl; Table 8, mean+S.E.) [µM] | IC50 (K562 cells; [3]) [µM] | IC50 (p210^bcr-abl; Table 9, mean ± S.E.) [µM] | Tumor Cell Mean log GI50 ([1]; Table 8) | Tumor Cell Mean log TGI ([1]; Table 8) | GI50 ([1]; Table 9) [µM] | Tumor Cell Mean log TGI ([1]; Table 9)
CC(=O)c1ccc(NCc2cc(O)ccc2O)cc1 [Compound 17, 4′-acetophenone-1′-N-2,5-dihydroxybenzylamine] | 13 | 1.03 | – | – | −4.72 | −4.25 | – | –
COC(=O)c1ccc(NCC2=CC(=O)C=CC2=O)cc1O [Compound 20, 3′-hydroxy-4′-methylbenzoate-1′-N-p-quinone-2-methyl amine] | – | – | 17 ± 0.3 | 5.15 ± 1.01 | – | – | 17 | −4.36
CC(C)OC(=O)c1ccc(NCC2=CC(=O)C=CC2=O)cc1Cl [Compound 26, 3′-chloro-4′-isopropylbenzoate-1′-N-p-quinone-2-methyl amine] | – | – | 27.7 ± 0.6 | 3.01 ± 1.75 | – | – | 9.55 | −4.41
O=C(O)c1cc(N(Cc2ccccc2O)Cc2cc(O)ccc2O)ccc1O [Lavendustin A, 5-[(2,5-dihydroxy-benzyl)-(2-hydroxy-benzyl)-amino]-2-hydroxy-benzoic acid] | 44.7 | 41.1 | – | – | −4.06 | −4.00 | – | –
COP(=O)(OC)c1ccc(NCc2cc(O)ccc2O)cc1 [O═P(OCH3)2 / H / H, 4′-phenylphosphonate-1-N-2,5-dihydroxybenzylamine] | 9.83 | 0.49 | – | – | −4.61 | −4.23 | – | –

Further lines, with some results ahead:

IC50 (K562 cells; [2]) [µM] | IC50 (p210^bcr-abl; Table 8, mean+S.E.) [µM] | IC50 (K562 cells; [3]) [µM] | IC50 (p210^bcr-abl; Table 9, mean ± S.E.) [µM] | Structure (SMILES) | Tumor Cell Mean log GI50 ([1]; Table 8) | Tumor Cell Mean log TGI ([1]; Table 8) | GI50 ([1]; Table 9) [µM] | Tumor Cell Mean log TGI ([1]; Table 9)
– | – | 17.4 ± 1 | 13.7 ± 5.78 | CC(C)OC(=O)c1ccc(NCC2=CC(=O)C=CC2=O)cc1 [Compound 21, 4′-isopropylbenzoate-1′-N-p-quinone-2-methyl amine] | – | – | 26.9 | −4.55
– | – | 24.8 ± 3.1 | 2.38 ± 0.45 | O=C1C=CC(=O)C(CNc2ccc(C(=O)OC34CC5CC(CC(C5)C3)C4)cc2)=C1Br [Compound 23, 4′-adamantylbenzoate-1′-N-2-bromo-p-quinone-3-methyl amine] | – | – | 7.59 | −4.60
– | – | 64.8 ± 1.22 | 2.68 ± 1.33 | CC(C)(C)OC(=O)c1ccc(NCC2=C(Br)C(=O)C=CC2=O)cc1 [Compound 24, 4′-t-butylbenzoate-1′-N-2-bromo-p-quinone-3-methyl amine] | – | – | 17.8 | −4.31
– | – | 17.5 ± 0.1 | 2.35 ± 0.41 | COC(=O)c1ccc(NCC2=C(Br)C(=O)C=CC2=O)cc1Cl [Compound 25, 3′-chloro-4′-methylbenzoate-1′-N-2-bromo-p-quinone-3-methyl amine] | – | – | 21.9 | −4.34
